# Assay results: US10201523B2, “Use of wilforlide A for overcoming chemotherapy resistance” (WESTERN UNIVERSITY OF HEALTH SCIENCES, priority 2013, dated 2019)
# “And” between values parts separate entries of the source, which are not always exact repeats. Equal entries are not always repeated.
# System: PC3
# Assay: SRB cell viability assay, docetaxel with/without wilforlide A pretreatment
# Settings: PC3
# [1] = no wilforlide A pre-Tx (control of Table 6), docetaxel 10 nM 72 h
# [2] = no wilforlide A pre-Tx (control of Table 6), docetaxel 33.3 nM 72 h
# [3] = no wilforlide A pre-Tx (control of Table 6), docetaxel 100 nM 72 h
# [4] = no wilforlide A pre-Tx (control of Table 8), docetaxel 0.001 nM 72 h
# [5] = no wilforlide A pre-Tx (control of Table 8), docetaxel 0.1 nM 72 h
# [6] = no wilforlide A pre-Tx (control of Table 8), docetaxel 0.333 nM 72 h
# [7] = no wilforlide A pre-Tx (control of Table 8), docetaxel 1 nM 72 h
# [8] = no wilforlide A pre-Tx (control of Table 8), docetaxel 3.33 nM 72 h
# [9] = no wilforlide A pre-Tx (control of Table 8), docetaxel 10 nM 72 h
# [10] = no wilforlide A pre-Tx (control of Table 8), docetaxel 33.3 nM 72 h
# [11] = no wilforlide A pre-Tx (control of Table 8), docetaxel 100 nM 72 h
# [12] = wilforlide A 0.6 μg/ml pre-Tx, docetaxel 0.1 nM 72 h
# [13] = wilforlide A 0.6 μg/ml pre-Tx, docetaxel 0.333 nM 72 h
# [14] = wilforlide A 0.6 μg/ml pre-Tx, docetaxel 1 nM 72 h
# [15] = wilforlide A 0.6 μg/ml pre-Tx, docetaxel 3.33 nM 72 h
# [16] = wilforlide A 0.6 μg/ml pre-Tx, docetaxel 10 nM 72 h
# [17] = wilforlide A 0.6 μg/ml pre-Tx, docetaxel 33.3 nM 72 h
# [18] = wilforlide A 0.6 μg/ml pre-Tx, docetaxel 100 nM 72 h
# [19] = wilforlide A 2.5 μg/ml pre-Tx, docetaxel 0.001 nM 72 h
# [20] = wilforlide A 2.5 μg/ml pre-Tx, docetaxel 0.1 nM 72 h
# [21] = wilforlide A 2.5 μg/ml pre-Tx, docetaxel 0.333 nM 72 h
# [22] = wilforlide A 2.5 μg/ml pre-Tx, docetaxel 1 nM 72 h
# [23] = wilforlide A 2.5 μg/ml pre-Tx, docetaxel 3.33 nM 72 h
# [24] = wilforlide A 2.5 μg/ml pre-Tx, docetaxel 10 nM 72 h
# [25] = wilforlide A 2.5 μg/ml pre-Tx, docetaxel 33.3 nM 72 h
# [26] = wilforlide A 2.5 μg/ml pre-Tx, docetaxel 100 nM 72 h
# [27] = wilforlide A […] pre-Tx, docetaxel 0.001 nM 72 h
# [28] = wilforlide A […] pre-Tx, docetaxel 0.1 nM 72 h
# [29] = wilforlide A […] pre-Tx, docetaxel 0.333 nM 72 h
# [30] = wilforlide A […] pre-Tx, docetaxel 1 nM 72 h
# [31] = wilforlide A […] pre-Tx, docetaxel 3.33 nM 72 h
# [32] = wilforlide A […] pre-Tx, docetaxel 10 nM 72 h
# [33] = wilforlide A […] pre-Tx, docetaxel 33.3 nM 72 h
# [34] = wilforlide A […] pre-Tx, docetaxel 100 nM 72 h
# Protocol: Following the 72 hour wilforlide A treatment, a sulforhodamine B (SRB) assay was used to quantitate living cells. To perform the assay, the wilforlide A media was aspirated from each well, and replaced with a 10% solution of cold trichloroacetic acid (TCA) (Cat #: T6399, purchased from Sigma-Aldrich), and incubated for one hour at 4° C. After the TCA incubation, the TCA solution was aspirated, and the cells were washed five times with tap water. After removing the last wash, the plates were left with lids off at room temperature until the surfaces were dry, which took one to two hours. Then 50 μl of a 0.4% solution of sul-forhodamine B (SRB) sodium salt (Cat #: S9012, purchased from Sigma-Aldrich) was added to each well and the plates were incubated at room temperature for 20 to 30 minutes. Afterwards, the wells were washed five times with a 1% acetic acid solution in 10 mM TRIS base (Cat #: 161-0719, purchased from Bio-Rad Laboratories, Hercules, Calif.). The plates were subsequently left to dry for several hours or overnight. SRB that remained in the dried wells was solubilized by adding 100 μl of SRB solubilization solution (10 mM TRIS base) to each well, and placing the plates either on a gently-moving shaker or letting the plates remain stationary at room temperature until the SRB dissolves, which takes about five to ten minutes. The amount of SRB in each well, which correlated directly to the number of living cells at fixation, was determined spectrophotometrically at an absorbance of 565 nm by a microplate reader.
# In these comparisons, the in vitro IC50 of a tested chemotherapeutic drug (D) in cell culture was compared to the drug's IC50 when drug treatment followed pretreatment of the cells with wilforlide A (Purchased from PI & PI Technology Inc. of Guangzhou, China or the National Institutes for Food and Drug Control in Beijing, China).
# Triplicate wells were assigned to each experimental condition tested, and a 24 hour recovery period for the cells following the seeding of the wells was allowed. During the recovery period, the cells were incubated at 37° C. and 5% CO2.
# At the end of the two hour pre-treatment period, 50 μl aliquots of the desired chemotherapeutic drug RPMI medium were added according to the amounts provided in Table 2.
# After adding the various doses of chemotherapeutic drugs, as described above, the cells were incubated for an additional 72 hours under the same temperature and atmospheric conditions used for the pre-treatment step.
# The cells were then incubated for 72 hours at 37° C. and 5% CO2. After the 72 hour incubation, sulforhodamine B (SRB) assays were performed as described in Example 1 to quantitate living cells.
structure (smiles),measurement,setting,value
CC(=O)O[C@@]12CO[C@@H]1C[C@H](O)[C@@]1(C)C(=O)[C@H](O)C3=C(C)[C@@H](OC(=O)[C@H](O)[C@@H](NC(=O)OC(C)(C)C)c4ccccc4)C[C@@](O)([C@@H](OC(=O)c4ccccc4)[C@H]21)C3(C)C [docetaxel],% viable,[1],22.9%
same,mean A,[1],0.447
same,A at 565 nm,"no wilforlide A pre-Tx (control of Table 6), docetaxel 10 nM 72 h, background = 0.044",0.464 and 0.427 and 0.450
same,% viable,[2],18.1%
same,mean A,[2],0.354
same,A at 565 nm,"no wilforlide A pre-Tx (control of Table 6), docetaxel 33.3 nM 72 h, background = 0.044",0.337 and 0.357 and 0.368
same,% viable,[3],18.4%
same,mean A,[3],0.360
same,A at 565 nm,"no wilforlide A pre-Tx (control of Table 6), docetaxel 100 nM 72 h, background = 0.044",0.349 and 0.366 and 0.365
same,% viable,[4],100.0%
same,mean A,[4],1.990
same,% viable,[5],101.2%
same,mean A,[5],2.014
same,% viable,[6],95.1%
same,mean A,[6],1.892
same,% viable,[7],71.2%
same,mean A,[7],1.417
same,% viable,[8],45.8%
same,mean A,[8],0.911
same,% viable,[9],23.0%
same,mean A,[9],0.458
same,% viable,[10],17.8%
same,mean A,[10],0.354
same,% viable,[11],17.4%
same,mean A,[11],0.346
same,mean A,"wilforlide A 0.6 μg/ml pre-Tx, docetaxel 0.001 nM 72 h",1.807
same,A at 565 nm,"wilforlide A 0.6 μg/ml pre-Tx, docetaxel 0.001 nM 72 h, background = 0.043",1.812 and 1.840 and 1.769
same,% viable,[12],102.3%
same,mean A,[12],1.848
same,A at 565 nm,"wilforlide A 0.6 μg/ml pre-Tx, docetaxel 0.1 nM 72 h, background = 0.043",1.855 and 1.874 and 1.816
same,% viable,[13],99.3%
same,mean A,[13],1.794
same,A at 565 nm,"wilforlide A 0.6 μg/ml pre-Tx, docetaxel 0.333 nM 72 h, background = 0.043",1.759 and 1.804 and 1.820
same,% viable,[14],72.9%
same,mean A,[14],1.317
same,A at 565 nm,"wilforlide A 0.6 μg/ml pre-Tx, docetaxel 1 nM 72 h, background = 0.043",1.303 and 1.386 and 1.263
same,% viable,[15],44.9%
same,mean A,[15],0.811
same,A at 565 nm,"wilforlide A 0.6 μg/ml pre-Tx, docetaxel 3.33 nM 72 h, background = 0.043",0.843 and 0.814 and 0.777
same,% viable,[16],22.7%
same,mean A,[16],0.409
same,A at 565 nm,"wilforlide A 0.6 μg/ml pre-Tx, docetaxel 10 nM 72 h, background = 0.043",0.408 and 0.421 and 0.400
same,% viable,[17],17.5%
same,mean A,[17],0.316
same,A at 565 nm,"wilforlide A 0.6 μg/ml pre-Tx, docetaxel 33.3 nM 72 h, background = 0.043",0.302 and 0.323
same,% viable,[18],16.5%
same,mean A,[18],0.299
same,A at 565 nm,"wilforlide A 0.6 μg/ml pre-Tx, docetaxel 100 nM 72 h, background = 0.043",0.290 and 0.287 and 0.320
same,% viable,[19],100.0%
same,mean A,[19],1.752
same,% viable,[20],101.9%
same,mean A,[20],1.786
same,% viable,[21],94.1%
same,mean A,[21],1.648
same,A at 565 nm,"wilforlide A 2.5 μg/ml pre-Tx, docetaxel 0.333 nM 72 h, background = 0.044",1.672
same,% viable,[22],69.8%
same,mean A,[22],1.222
same,A at 565 nm,"wilforlide A 2.5 μg/ml pre-Tx, docetaxel 1 nM 72 h, background = 0.044",1.201
same,% viable,[23],43.9%
same,mean A,[23],0.769
same,A at 565 nm,"wilforlide A 2.5 μg/ml pre-Tx, docetaxel 3.33 nM 72 h, background = 0.044",0.810
same,% viable,[24],23.0%
same,mean A,[24],0.403
same,A at 565 nm,"wilforlide A 2.5 μg/ml pre-Tx, docetaxel 10 nM 72 h, background = 0.044",0.402
same,% viable,[25],19.2%
same,mean A,[25],0.336
same,A at 565 nm,"wilforlide A 2.5 μg/ml pre-Tx, docetaxel 33.3 nM 72 h, background = 0.044",0.358
same,% viable,[26],18.4%
same,mean A,[26],0.322
same,A at 565 nm,"wilforlide A 2.5 μg/ml pre-Tx, docetaxel 100 nM 72 h, background = 0.044",0.318
same,% viable,[27],100.0%
same,mean A,[27],1.957
same,% viable,[28],100.4%
same,mean A,[28],1.965
same,% viable,[29],92.2%
same,mean A,[29],1.804
same,% viable,[30],67.0%
same,mean A,[30],1.311
same,% viable,[31],41.7%
same,mean A,[31],0.816
same,% viable,[32],23.9%
same,mean A,[32],0.467
same,% viable,[33],19.1%
same,mean A,[33],0.373
same,% viable,[34],18.4%
same,mean A,[34],0.361
same,IC50,"read-out: Drug IC50 after wilforlide A pre-Tx, pre-Tx amount of wilforlide A printed as none added",1.61 nM
